Test results: patent US10350272B2, “Calcitonin analogues for treating diseases and disorders” (KeyBioscience AG, priority 2015, dated 2019)
Where no end group is shown, it is not given here.

How the values were obtained:
[1] = system: liver sections from HFD-fed rats; assay: Oil-Red-O staining of frozen liver sections; format: in vivo, rat
Procedure: At termination of the study of Example 2 the rat livers were embedded using snap freezing in OCT, and then sectioned using a cryomicrotome. Sections were prepared from four groups, KBP-042 in HFD rats, KBP-089 in HFD rats, control HFD rats, and a lean rat comparison.
The sections were stained using Oil-Red-O staining. […] The lipid accumulation in pair-fed KBP-089 liver exceeded KBP-089 treated rats with 66.5% (p<0.001) and was not significant different from vehicle (0.6711). Statistical test performed was one-way ANOVA with Dunnet's post test for multiple comparisons. **p<0.01, ***p<0.001.

[2] = system: cultured rat hepatocytes; details: cited from earlier work
[3] = system: rats; details: s.c., single dose 1000 mU/rat or 0.5-50 mU/rat over 12 weeks, dose dependently; cited from earlier work
[4] = amylin dosage 100 μg kg^−1, compared with saline; cited from earlier work

## AcCSNLSTCMLGRLSQDLHRLQTYPKTDVGANAP-NH2 (Ac-CSNLSTCMLGRLSQDLHRLQTYPKTDVGANAP-NH2; ends and bridges not checked) [KBP-089]
[1]; 2.5 μg/kg, p<0.001
  excess of lipid accumulation in pair-fed KBP-089 liver over KBP-089 treated rats (Oil-Red-O): 66.5%
[1]; HFD rats, 2.5 μg/kg daily
  decrease of HFD-induced lipid accumulation in liver compared to vehicle (Oil-Red-O): 155.3%

## salmon calcitonin [synthetic salmon calcitonin]
[2]
  incorporation of acetate into cholesterol and triglycerides: reduced
[3]
  serum cholesterol levels: reduced
  serum lipoprotein levels: reduced
  serum triglyceride levels: reduced

## amylin (KCNTATCATQRLANFLVRSSNNLGPVLPPTNVGSNTY; ends and bridges not checked; cysteine pairing not given here; UniProt P12969 38-74, looked up) [amylin administered alone in Kusakabe et al (2011), reference compound]
[4]
  tissue triglyceride content: neither L nor A decreased

B1: leptin (protein, UniProt P50596 22-167, looked up)
Leptin: VPIHKVQDDTKTLIKTIVTRINDISHTQSVSARQRVTGLDFIPGLHPILSLSKMDQTLAVYQQILTSLPSQNVLQIAHDLENLRDLLHLLAFSKSCSLPQTRGLQKPESLDGVLEASLYSTEVVALSRLQGSLQDILQQLDLSPEC
notes: leptin administered alone in Kusakabe et al (2011)
[4]
  tissue triglyceride content: neither L nor A decreased
